Reference: patent US20250179017A1 (GUANGDONG NEWOPP BIOPHARMACEUTICALS CO., LTD., priority 2022, published 2025)

Tests used:
human EP2 (PTGER2) = biological target: T1, human EP2 (PTGER2) (Homo sapiens, UniProt P43116); assay: EP2 antagonist assay (HEK-293 CNG membrane potential cAMP assay / 293T SEAP reporter assay, PGE2-stimulated); format: cell-based; conditions: EP2 antagonist activity; concentration for 50% inhibition of signal compared to DMSO
T1 construct: Cayman Chemical (Human EP2 Reporter Assay Kit)
T1 sequence (P43116 whole entry): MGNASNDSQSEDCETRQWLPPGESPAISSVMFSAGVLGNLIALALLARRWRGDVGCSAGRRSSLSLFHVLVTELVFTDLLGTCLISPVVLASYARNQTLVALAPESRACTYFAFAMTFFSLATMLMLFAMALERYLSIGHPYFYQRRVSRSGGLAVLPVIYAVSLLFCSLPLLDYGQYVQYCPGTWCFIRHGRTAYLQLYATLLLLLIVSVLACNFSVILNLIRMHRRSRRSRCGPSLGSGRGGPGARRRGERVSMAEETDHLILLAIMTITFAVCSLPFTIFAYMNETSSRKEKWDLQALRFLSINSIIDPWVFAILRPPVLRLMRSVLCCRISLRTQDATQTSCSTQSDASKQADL
Procedure, shortened: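 HEK-293 CNG cells expressing human EP2: compound preincubated 15 min at RT, then PGE2 at 5 nM final, 30 min; membrane-potential dye fluorescence (ex 530, em 590 nm), background-subtracted, gave IC50. Alternatively, 293T cells reverse-transfected with EP2 and CRE-SEAP, compound plus 13 nM PGE2 for 6-8 h, SEAP luminescence.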

human EP4 (EP4R) = biological target: T2, human EP4 (EP4R) (Homo sapiens, UniProt P35408); assay: EP4 antagonist assay (HEK-293 CNG membrane potential cAMP assay / 293T SEAP reporter assay, PGE2-stimulated); format: cell-based; conditions: EP4 antagonist activity; concentration for inhibition of signal compared to DMSO
T2 construct: Cayman Chemical (Human EP4 Reporter Assay Kit)
T2 sequence (P35408 whole entry): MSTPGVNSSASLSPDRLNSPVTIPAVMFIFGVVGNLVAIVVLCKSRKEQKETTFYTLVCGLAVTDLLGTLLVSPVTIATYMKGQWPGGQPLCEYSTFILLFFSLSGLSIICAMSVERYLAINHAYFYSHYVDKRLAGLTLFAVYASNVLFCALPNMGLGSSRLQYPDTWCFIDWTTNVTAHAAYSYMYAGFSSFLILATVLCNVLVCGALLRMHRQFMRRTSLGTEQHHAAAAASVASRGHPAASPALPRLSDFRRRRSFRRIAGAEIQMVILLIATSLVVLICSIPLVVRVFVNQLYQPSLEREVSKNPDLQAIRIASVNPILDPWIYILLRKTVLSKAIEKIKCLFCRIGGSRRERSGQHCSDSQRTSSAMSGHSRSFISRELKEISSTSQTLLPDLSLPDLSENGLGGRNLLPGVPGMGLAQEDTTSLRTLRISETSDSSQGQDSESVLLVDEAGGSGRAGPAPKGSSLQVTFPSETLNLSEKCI
Text: 1. The HEK-293 CNG (Cyclic Nucleotide Gated) cell line expressing a modified CNG channel that leads to cell membrane depolarization in response to elevated intracellular cAMP levels, which can be measured using a fluorescent membrane potential dye, was engineered to express human EP2 (PTGER2) or EP4 (EP4R). The resulting cell line ACTOne™ PTGER2 or ACTOne™ EP4R as well as the fluorescent membrane potential dye were purchased from eEnzyme (Gaithersburg, MD, US) and used in this assay. Briefly, cells were plated at 1.2×10^4 cells/well in 20 μL DMEM supplemented with 2% Fetal Bovine Serum (FBS, VWR International), 1x Penicillin/Streptomycin (GenClone), 0.2 μg/mL puromycin (InvivoGen) and 50 μg/mL G418 (InvivoGen) on a 384 well plate (Greiner). The next day, cells were dye-loaded with 20 μL/well of 1x Dye-loading solution (eENZYME) following the manufacturer's instruction. After 2 hours of incubation at room temperature (RT) in the dark, a pre-read was made to obtain the background signals using CLARIOstar plate reader (BMG LABTECH, Germany) with the following filter settings: excitation=530/20 nm, emission=590/20 nm. Next, a serial dilution of compound (plus a DMSO control) were added to the plate (5 μL/well) and the reaction was incubated at RT for 15 min before adding 5 μL of PGE2 to every well for a final concentration of 5 nM. All wells were duplicated. The plate was then further incubated at RT for 30 min prior to a final read with the same machine settings. Background-subtracted signals were used to calculate IC50 values.
2. Human EP2 and EP4 Reporter Assay Kits were purchased from Cayman Chemical (Ann Arbor, MI, USA). The assay was performed following the provided User Manual. Briefly, a reverse transfection was performed by seeding 6.0×10^4 of 293T cells (ATCC) to each well of the provided Strip Plate coated with a proprietary transfection complex containing DNA constructs for expressing human EP2 or EP4 and a cAMP response element regulated secreted alkaline phosphatase (SEAP) reporter, in 200 μL DMEM supplemented with 2% FBS and incubated for 20-24 hours at 37° C. with 5% CO2. After the incubation, the culture medium was carefully removed, and the cells were replenished with 150 μL pre-warmed serum-free medium. PGE2 and test compounds were prepared together at 4x the desired final concentration, and 50 μL was added to each assigned well with the final concentration of 13 nM and 2 nM PGE2 for EP2 and EP4 assay, respectively. After 6-8 hours of incubation, 10 μL media from each well was transferred to corresponding well of a new plate, which was then sealed and incubated at 65° C. for 30 min. The plate was then cooled down to RT and 50 μL SEAP substrate was added to each well. Luminescence signal was measured using a CLARIOstar plate reader.
The IC50 value was determined as the concentration for […] inhibition of signal compared to DMSO (A: IC50≤100 nM; B: IC50 between 100 nM and 1,000 nM; C: IC50≥1,000 nM).

SMILES | IC50 (human EP2 (PTGER2)) | IC50 (human EP4 (EP4R))
C[C@H](NC(=O)c1cc(-c2cc(F)cc(F)c2)cc2ccn(Cc3ccc(-c4ccccc4)cc3)c12)c1ccc(C(=O)O)cc1 [Example 152, (S)-4-(1-(1-([1,1′-biphenyl]-4-ylmethyl)-5-(3,5-difluorophenyl)-1H-indole-7-carboxamido)ethyl)benzoic acid] | < 100 nM | ≤ 100 nM
O=C(O)c1ccc(CNC(=O)c2ccc(Nc3ccccc3)c3ccn(Cc4ccc(-c5ccccc5)cc4)c23)cc1 [Example 154, 4-((1-([1,1′-biphenyl]-4-ylmethyl)-4-(phenylamino)-1H-indole-7-carboxamido)methyl) benzoic acid] | < 100 nM | ≤ 100 nM
O=C(O)c1ccc(CNC(=O)c2ccc(Nc3ccccc3)c3ccn(Cc4ccc5ccccc5c4)c23)cc1 [Example 156, 4-((1-(naphthalen-2-ylmethyl)-4-(phenylamino)-1H-indole-7-carboxamido)methyl)benzoic acid] | < 100 nM | ≤ 100 nM
O=C(O)c1ccc(CNC(=O)c2cc(-c3ccccc3)cc3cnn(Cc4ccc5ccccc5c4)c23)cc1 [Example 165, 4-((1-(naphthalen-2-ylmethyl)-5-phenyl-1H-indazole-7-carboxamido)methyl)benzoic acid] | < 100 nM | ≤ 100 nM
O=C(O)c1ccc(CNC(=O)c2cc(-c3ccc(F)cc3)cc3cnn(Cc4ccc5ccccc5c4)c23)cc1 [Example 166, 4-((5-(4-fluorophenyl)-1-(naphthalen-2-ylmethyl)-1H-indazole-7-carboxamido)methyl)benzoic acid] | < 100 nM | ≤ 100 nM
C[C@H](NC(=O)c1cc(-c2ccc(F)cc2)cc2cnn(Cc3ccc4ccccc4c3)c12)c1ccc(C(=O)O)cc1 [Example 168, (S)-4-(1-(5-(4-fluorophenyl)-1-(naphthalen-2-ylmethyl)-1H-indazole-7-carboxamido)ethyl)benzoic acid] | < 100 nM | ≤ 100 nM
C[C@H](NC(=O)c1cc(-c2cc(F)cc(F)c2)cc2cnn(Cc3ccc4ccccc4c3)c12)c1ccc(C(=O)O)cc1 [Example 169, (S)-4-(1-(5-(3,5-difluorophenyl)-1-(naphthalen-2-ylmethyl)-1H-indazole-7-carboxamido)ethyl)benzoic acid] | < 100 nM | ≤ 100 nM
O=C(O)c1ccc(CNC(=O)c2cc(-c3ccc(F)cc3)cc3nnn(Cc4ccc(C(F)(F)F)cc4)c23)cc1 [Example 175] | < 100 nM | ≤ 100 nM
O=C(O)c1ccc(CNC(=O)c2cc(-c3cc(F)cc(F)c3)cc3nnn(Cc4ccc(C(F)(F)F)cc4)c23)cc1 [Example 176, ((5-(3,5-difluorophenyl)-1-(4-(trifluoromethyl)benzyl)-1H-benzo[d][1,2,3]triazole-7-carboxamido)methyl)benzoic acid] | < 100 nM | ≤ 100 nM
C[C@H](NC(=O)c1cc(-c2ccc(F)cc2)cc2nnn(Cc3ccc(C(F)(F)F)cc3)c12)c1ccc(C(=O)O)cc1 [Example 180, (S)-4-(1-(5-(4-fluorophenyl)-1-(4-(trifluoromethyl)benzyl)-1H-benzo[d][1,2,3]triazole-7-carboxamido)ethyl)benzoic acid] | < 100 nM | ≤ 100 nM
O=C(O)c1ccc(CNC(=O)c2cc(-c3ccccc3)cc3cnn(Cc4ccc(-c5ccc(F)cc5)cc4)c23)cc1 [Example 184, 4-((1-((4′-fluoro-[1,1′-biphenyl]-4-yl)methyl)-5-phenyl-1H-indazole-7-carboxamido)methyl)benzoic acid] | < 100 nM | ≤ 100 nM
O=C(O)c1ccc(CNC(=O)c2cc(-c3ccc(F)c(F)c3)cc3ccn(Cc4ccc(-c5ccccc5)cc4)c23)cc1 [Example 188, 4-((1-([1,1′-biphenyl]-4-ylmethyl)-5-(3,4-difluorophenyl)-1H-indole-7-carboxamido)methyl)benzoic acid] | < 100 nM | ≤ 100 nM
C[C@H](NC(=O)c1cc(-c2ccccc2)cc2nnn(Cc3ccc4ccccc4c3)c12)c1ccc(C(=O)O)cc1 [Example 189] | < 100 nM | ≤ 100 nM
